Results: US8674113B2, “Compounds” (Boehringer Ingelheim International GmbH, priority 2010, dated 2014)

Target: mPGES-1 in A549 cells (Homo sapiens (Human), UniProt O14684)
Assay: A549 cell-based assay (PGE2 formation, 50% human serum)
Conditions: IL-1β 5 ng/ml, 10 nM arachidonic acid, 20-24 h, read-out: mPGES-1 inhibitory effect IC50 in the cell assay
Procedure: Although the enzymatic assay is a high throughput assay the disadvantage is that it uses a recombinant protein which is not in its natural environment. Accordingly a cellular assay was established in which a cell line of human origin (A549) expressing the mPGES-1 protein was used. In addition in order to mimic the situation in humans in which compounds can be bound to plasma proteins 50% human serum is added in the assay.
A549 cells (ATCC: CCL-185) are grown to about 90% confluence in F-12K Nutrient Mixture (Kaighn's Mod. Gibco) containing 10% FBS in a humified incubator at 37° C. and 5% CO2. Cells were detached using Trypsin-EDTA. A549 cells were seeded in a 384-well collagene plate at a density of 7000 cells/well (50 μl) in F-12 medium containing 1% Penicillin-Streptomycin and 50% human serum. The cells were allowed to attach for 3-4 h. After that the cells were incubated for 20-24 h in F-12k medium supplemented with 50% human serum, 1% Penicillin-Streptomycin and containing IL-1β at a final concentration of 5 ng/ml as well as 10 nM arachidonic acid in the presence of a vehicle or a test compound. The total volume is 100 μl.
Concentrations of PGE2 in the cell free medium (10 μl) were measured using a commercially available HTRF kit from Cisbio (as described above). The PGE2 formation in the absence of test compound was taken as 100%.
IC50 values were derived from at 6-8 point titrations using conventional software.

Sequence of mPGES-1 in A549 cells (O14684 whole entry): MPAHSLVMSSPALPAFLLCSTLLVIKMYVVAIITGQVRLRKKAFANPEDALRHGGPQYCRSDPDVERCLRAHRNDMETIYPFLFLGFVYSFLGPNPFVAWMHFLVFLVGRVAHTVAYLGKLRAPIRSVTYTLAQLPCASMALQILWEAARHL

Row | SMILES | IC50
1 | COc1cncc(C(=O)NCc2ccc(Cl)c(Nc3nc4cc(C(=O)N[C@H]5CC[C@H](C(F)(F)F)CC5)c(N5CC6CC6C5)cc4n3C)c2Cl)c1 (some centres unmarked) [Example 200] | > 100 nM
2 | Cn1c(Nc2c(Cl)ccc(CNC(=O)c3c(F)cncc3F)c2Cl)nc2cc(C(=O)N[C@H]3CC[C@H](C(F)(F)F)CC3)c(N3CC4CC4C3)cc21 (some centres unmarked) [Example 201] | 6 nM
3 | Cc1cc(C)nc(C(=O)NCc2ccc(Cl)c(Nc3nc4cc(C(=O)N[C@H]5CC[C@H](C(F)(F)F)CC5)c(N5CC6CC6C5)cc4n3C)c2Cl)c1 (some centres unmarked) [Example 202] | 57 nM
4 | CNc1cc(C(=O)NCc2ccc(Cl)c(Nc3nc4cc(C(=O)N[C@H]5CC[C@H](C(F)(F)F)CC5)c(N5CC6CC6C5)cc4n3C)c2Cl)ccn1 (some centres unmarked) [Example 203] | 46 nM
5 | COc1cccc(C(=O)NCc2ccc(Cl)c(Nc3nc4cc(C(=O)N[C@H]5CC[C@H](C(F)(F)F)CC5)c(N5CC6CC6C5)cc4n3C)c2Cl)n1 (some centres unmarked) [Example 204] | 49 nM
6 | Cn1c(Nc2c(Cl)ccc(CNC(=O)c3cncc(O)c3)c2Cl)nc2cc(C(=O)N[C@H]3CC[C@H](C(F)(F)F)CC3)c(N3CC4CC4C3)cc21 (some centres unmarked) [Example 205] | > 100 nM
7 | Cn1c(Nc2c(Cl)ccc(CNC(=O)c3cccc(CO)n3)c2Cl)nc2cc(C(=O)N[C@H]3CC[C@H](C(F)(F)F)CC3)c(N3CC4CC4C3)cc21 (some centres unmarked) [Example 206] | 42 nM
8 | Cn1c(Nc2c(Cl)ccc(CNC(=O)c3cc(CO)ccn3)c2Cl)nc2cc(C(=O)N[C@H]3CC[C@H](C(F)(F)F)CC3)c(N3CC4CC4C3)cc21 (some centres unmarked) [Example 207] | 170 nM
9 | Cn1c(Nc2c(Cl)ccc(CNC(=O)c3cccc(C#N)n3)c2Cl)nc2cc(C(=O)N[C@H]3CC[C@H](C(F)(F)F)CC3)c(N3CC4CC4C3)cc21 (some centres unmarked) [Example 208] | 21 nM
10 | Cn1c(Nc2c(Cl)ccc(CNC(=O)c3cc(C#N)ccn3)c2Cl)nc2cc(C(=O)N[C@H]3CC[C@H](C(F)(F)F)CC3)c(N3CC4CC4C3)cc21 (some centres unmarked) [Example 209] | 6.5 nM
11 | CCn1c(C(=O)NCc2ccc(Cl)c(Nc3nc4cc(C(=O)N[C@H]5CC[C@H](C(F)(F)F)CC5)c(N5CC6CC6C5)cc4n3C)c2Cl)cccc1=O (some centres unmarked) [Example 210] | 8 nM
12 | COc1ncccc1C(=O)NCc1ccc(Cl)c(Nc2nc3cc(C(=O)N[C@H]4CC[C@H](C(F)(F)F)CC4)c(N4CC5CC5C4)cc3n2C)c1Cl (some centres unmarked) [Example 211] | 106 nM
13 | Cn1c(Nc2c(Cl)ccc(CNC(=O)c3ccc(C#N)nc3)c2Cl)nc2cc(C(=O)N[C@H]3CC[C@H](C(F)(F)F)CC3)c(N3CC4CC4C3)cc21 (some centres unmarked) [Example 212] | 1.7 nM
14 | COc1cncc(C(=O)NCc2ccc(Cl)c(Nc3nc4cc(C(=O)N[C@H]5CC[C@H](C(F)(F)F)CC5)c(N5CC6CC6C5)cc4n3C)c2Cl)n1 (some centres unmarked) [Example 213] | 41 nM
15 | CNc1cncc(C(=O)NCc2ccc(Cl)c(Nc3nc4cc(C(=O)N[C@H]5CC[C@H](C(F)(F)F)CC5)c(N5CC6CC6C5)cc4n3C)c2Cl)n1 (some centres unmarked) [Example 214] | 113 nM
16 | Cn1c(Nc2c(Cl)ccc(CNC(=O)c3ncn[nH]3)c2Cl)nc2cc(C(=O)N[C@H]3CC[C@H](C(F)(F)F)CC3)c(N3CC4CC4C3)cc21 (some centres unmarked) [Example 215] | > 100 nM
17 | Cn1ccnc1C(=O)NCc1ccc(Cl)c(Nc2nc3cc(C(=O)N[C@H]4CC[C@H](C(F)(F)F)CC4)c(N4CC5CC5C4)cc3n2C)c1Cl (some centres unmarked) [Example 216] | 27 nM
18 | Cn1cncc1C(=O)NCc1ccc(Cl)c(Nc2nc3cc(C(=O)N[C@H]4CC[C@H](C(F)(F)F)CC4)c(N4CC5CC5C4)cc3n2C)c1Cl (some centres unmarked) [Example 217] | > 100 nM

Row | SMILES | IC50
19 | Cn1c(Nc2c(Cl)ccc(CNC(=O)c3cc(O)[nH]n3)c2Cl)nc2cc(C(=O)N[C@H]3CC[C@H](C(F)(F)F)CC3)c(N3CC4CC4C3)cc21 (some centres unmarked) [Example 218] | 98 nM
20 | Cc1cc(C(=O)NCc2ccc(Cl)c(Nc3nc4cc(C(=O)N[C@H]5CC[C@H](C(F)(F)F)CC5)c(N5CC6CC6C5)cc4n3C)c2Cl)nn1C (some centres unmarked) [Example 219] | > 100 nM
21 | Cn1c(Nc2c(Cl)ccc(CNC(=O)c3c[nH]cn3)c2Cl)nc2cc(C(=O)N[C@H]3CC[C@H](C(F)(F)F)CC3)c(N3CC4CC4C3)cc21 (some centres unmarked) [Example 220] | 119 nM
22 | Cn1c(Nc2c(Cl)ccc(CNC(=O)c3cn[nH]c3)c2Cl)nc2cc(C(=O)N[C@H]3CC[C@H](C(F)(F)F)CC3)c(N3CC4CC4C3)cc21 (some centres unmarked) [Example 221] | 53 nM
23 | Cc1noc(N)c1C(=O)NCc1ccc(Cl)c(Nc2nc3cc(C(=O)N[C@H]4CC[C@H](C(F)(F)F)CC4)c(N4CC5CC5C4)cc3n2C)c1Cl (some centres unmarked) [Example 222] | 100 nM
24 | Cc1cc(C(=O)NCc2ccc(Cl)c(Nc3nc4cc(C(=O)N[C@H]5CC[C@H](C(F)(F)F)CC5)c(N5CC6CC6C5)cc4n3C)c2Cl)no1 (some centres unmarked) [Example 223] | 12 nM
25 | Cc1noc(C)c1C(=O)NCc1ccc(Cl)c(Nc2nc3cc(C(=O)N[C@H]4CC[C@H](C(F)(F)F)CC4)c(N4CC5CC5C4)cc3n2C)c1Cl (some centres unmarked) [Example 224] | 67 nM
26 | Cc1nc(N)sc1C(=O)NCc1ccc(Cl)c(Nc2nc3cc(C(=O)N[C@H]4CC[C@H](C(F)(F)F)CC4)c(N4CC5CC5C4)cc3n2C)c1Cl (some centres unmarked) [Example 225] | 71 nM
27 | Cn1c(Nc2c(Cl)ccc(CNC(=O)c3cnc(N)s3)c2Cl)nc2cc(C(=O)N[C@H]3CC[C@H](C(F)(F)F)CC3)c(N3CC4CC4C3)cc21 (some centres unmarked) [Example 226] | 98 nM
28 | Cc1nc(C)c(C(=O)NCc2ccc(Cl)c(Nc3nc4cc(C(=O)N[C@H]5CC[C@H](C(F)(F)F)CC5)c(N5CC6CC6C5)cc4n3C)c2Cl)s1 (some centres unmarked) [Example 227] | 43 nM
29 | Cc1nc(C(=O)NCc2ccc(Cl)c(Nc3nc4cc(C(=O)N[C@H]5CC[C@H](C(F)(F)F)CC5)c(N5CC6CC6C5)cc4n3C)c2Cl)cs1 (some centres unmarked) [Example 228] | > 100 nM
30 | Cn1c(Nc2c(Cl)ccc(CNC(=O)c3csc(N)n3)c2Cl)nc2cc(C(=O)N[C@H]3CC[C@H](C(F)(F)F)CC3)c(N3CC4CC4C3)cc21 (some centres unmarked) [Example 229] | 4.6 nM
31 | Cn1c(Nc2c(Cl)ccc(CNC(=O)c3cc[nH]n3)c2Cl)nc2cc(C(=O)N[C@H]3CC[C@H](C(F)(F)F)CC3)c(N3CC4CC4C3)cc21 (some centres unmarked) [Example 230] | 40 nM
32 | Cn1c(Nc2c(Cl)ccc(CNC(=O)OC(C)(C)C)c2Cl)nc2cc(C(=O)NCCC(F)(F)F)c(N3CC4CC4C3)cc21 (centres unmarked) [Example 266] | 23 nM
33 | Cn1c(Nc2c(Cl)ccc(CNC(=O)C(C)(C)C)c2Cl)nc2cc(C(=O)Nc3ccc(OC(F)(F)F)cc3)c(N3CCC(F)CC3)cc21 [Example 267] | 1.7 nM
34 | CC(C)(C)C(=O)NCc1ccc(Cl)c(Nc2nc3cc(C(=O)Nc4ccc(OC(F)(F)F)cc4)c(N4CCOCC4)cc3n2CCC(N)=O)c1Cl [Example 268] | 6.5 nM
35 | CC(C)(F)C(=O)NCc1ccc(Cl)c(Nc2nc3cc(C(=O)NCCC(F)(F)F)c(N4CCC(C(F)(F)F)CC4)cc3n2C(C)(C)CO)c1Cl [Example 269] | 55 nM
